Test results: paper PMC10072296, “A Novel CCK Receptor GPR173 Mediates Potentiation of GABAergic Inhibition” (The Journal of Neuroscience, 2023)

Experiments:
[1] = biological target: T1, GPR173 (CHO-GPR173 cells) (Homo sapiens, UniProt Q9NS66); assay: Ca2+ imaging assay in CHO-GPR173 cells; format: cell-based
T1 construct: expressed in transfected cells; host or cells: CHO cells, lentiviral infection (pLVX-puro-GPCR), puromycin selection, monoclonal line
Method: CHO and infected CHO cells (CHO-GPCRs) were cultivated at 37°C in a humidified atmosphere with 5% CO2 in DMEM/F-12 medium (Thermo Fisher Scientific) supplemented with 10% FBS (Natocor Industria Biológica).
For Ca^2+ mobilization by a confocal microscope, ∼8 × 10^4 transfected cells were seeded in each well of an eight-well chambered cover glass (Thermo Fisher Scientific) the day before the Ca^2+ imaging assay. Then, 5 μM Fluo-8 (AAT Bioquest) dissolved in HHBS solution was incubated with the cells for 30 min in a cell incubator and 30 min at room temperature after removing the culture medium. These cells were washed three times with HHBS, and 360 µl HHBS was added. Subsequently, images of these cells were captured by a Zeiss 710 nonlinear optical confocal microscope before and after being treated with 10× compounds or HHBS solution.
Cells were cultured at 37°C, and 5% CO2 in DMEM/F-12 medium (Thermo Fisher Scientific) containing 10% FBS (Natocor Industria Biológica) and washed with DMEM/F-12 medium once after overnight incubation.

[2] = system: IPSCs of pyramidal neurons in auditory cortex (AC) brain slices; assay: In vitro patch-clamp recording of laser-evoked IPSCs in pyramidal neurons; settings: devazepide 60 nM in bath solution, brain slices from mDlx-DIO-ChR2-mCherry-injected CCK-Cre mice
From the text: For brain slice recording experiments, we injected rAAV9-mDlx-DIO-ChR2-mCherry-WPRE-pA (5.18E + 12 vg/ml; BrainVTA) into the AC of CCK-Cre and PV-Cre mice.
In the in vivo brain slice recording experiments, we adopted a protective cutting and recovery method to prepare acute brain slices from CCK-Cre, PV-Cre, CCK-KO, and CCK1R/2R-KO mice to achieve a higher success rate for patch clamping, as previously described ([Chen et al., 2019]). […]
We performed whole-cell recordings with a MultiClamp 700B amplifier and Digital 1440A digitizer (Molecular Devices) targeting the AC in the brain slices in room temperature aCSF containing the following (in mM): 119 NaCl, 2.5 KCl, 1.25 NaH2PO4, 24 NaHCO3, 12.5 glucose, 2 CaCl2·4H2O, and 2 MgSO4·7H2O, ∼25°C). […] We recorded IPSCs in response to the laser stimulation (1 pulse per 15 s, 5 ms in duration) under voltage-clamp recording mode (holding at −60 mV to −50 mV) for 5 min as the baseline before and for 25 min after HFLS or LFLS. […] For the normalization of recorded IPSCs in the CCK-Cre, PV-Cre, CCK-KO, and CCK1R/2R-KO mice, we selected only patched neurons with IPSCs >35 pA.

CCK2R = assay: Cell surface binding assay, Flag-CCK2R; parameters: species or system human; settings: transfected HEK293T cells; HHBS with 20 mM HEPES, pH 7.4, 30 min, room temperature; anti-HA/anti-Flag immunofluorescence, confocal; n = 33-40 cells, three independent experiments
Method: (§1) We transfected HEK293T cells with pCDNA3.1(+)-Flag-GPCR (purchased from Public Protein/Plasmid Library or made in our laboratory based on a pCDNA3.1(+) backbone). […] After three washes with HHBS, cells were fixed in 4% paraformaldehyde (PFA) and 4% sucrose in PBS for 15 min at room temperature. Cells were blocked in 5% normal goat serum in PBS, and staining was performed in detergent-free conditions without cell permeabilization after three washes by PBS. We used primary antibody rabbit anti-HA (catalog #8146, Cell Signaling Technology), anti-GPR173 (catalog #PA5-50 976, Thermo Fisher Scientific), and mouse anti-Flag (catalog #3724, Cell Signaling Technology) to detect HA and Flag tags. Images were captured on a Leica SP8 confocal microscope. Images within each experiment were collected using identical laser power, offset, and gain.

GPR173 = assay: Cell surface binding assay, Flag-GPR173; parameters: species or system human; settings: transfected HEK293T cells; HHBS with 20 mM HEPES, pH 7.4, 30 min, room temperature; Fanti-HA/Fanti-Flag, confocal; n = 33-40 cells, three independent experiments
Method: as §1

HTR1B = assay: Cell surface binding assay, Flag-HTR1B; parameters: species or system human; settings: transfected HEK293T cells (negative/background control); HHBS pH 7.4, 30 min, room temperature; confocal
Method: as §1

T1 sequence (Q9NS66 whole entry): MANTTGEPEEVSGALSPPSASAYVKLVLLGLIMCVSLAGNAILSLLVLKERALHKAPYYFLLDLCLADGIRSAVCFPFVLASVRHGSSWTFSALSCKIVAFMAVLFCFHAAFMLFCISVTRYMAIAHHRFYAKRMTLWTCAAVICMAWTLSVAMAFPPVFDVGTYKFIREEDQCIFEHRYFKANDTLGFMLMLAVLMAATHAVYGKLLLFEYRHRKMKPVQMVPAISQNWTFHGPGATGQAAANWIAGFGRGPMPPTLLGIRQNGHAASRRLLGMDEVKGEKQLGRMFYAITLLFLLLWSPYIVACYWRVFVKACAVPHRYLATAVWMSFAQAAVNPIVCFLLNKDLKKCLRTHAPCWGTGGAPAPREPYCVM

Molecule	Antagonistic action on GPR173, rank ([1]; CHO-GPR173, 10 nM CCK8s, compared with loxiglumide, YF476 and L365,260)	IC50 ([1]; read-out: IC50, antagonism of CCK8s-induced Ca2+ response)	Block of HFLS-induced potentiation of IPSCs [2]	Binding to Flag-CCK2R (Fanti-HA/Fanti-Flag) (CCK2R)	Binding to Flag-GPR173 (GPR173)	Binding to Flag-HTR1B (HTR1B)
CN1C(=O)[C@@H](NC(=O)c2cc3ccccc3[nH]2)N=C(c2ccccc2)c2ccccc21 [devazepide]	highest antagonistic action on GPR173	12.3 nM	fully blocked the HFLS-induced potentiation of IPSCs	–	–	–
HA-tagged CCK8s: HA-(ε-Ahx)2-CCK variant probe of CCK8s	–	–	–	significantly larger ratio of CCK ligand HA-tag signal to CCK2R Flag signal (Fanti-HA/Fanti-Flag) than that of the HA-(ε-Ahx)2 control group	could only bind to HA-tagged CCK8	No binding
HA-tagged CCK8ns: HA-(ε-Ahx)2-CCK variant probe of nonsulfated CCK8	–	–	–	significantly larger ratio of CCK ligand HA-tag signal to CCK2R Flag signal (Fanti-HA/Fanti-Flag) than that of the HA-(ε-Ahx)2 control group	not HA-tagged CCK4 or CCK8ns	No binding
